In ChEMBL document CHEMBL1148572, “1-((S)-2-aminopropyl)-1H-indazol-6-ol: a potent peripherally acting 5-HT2 receptor agonist with ocular hypotensive activity” (J Med Chem, 2006) one finds inhibition and EC50 data, which are given here for one compound.

The target in data set [1] is T1, Glutamate [NMDA] receptor (Homo sapiens) (UniProt Q05586+Q12879+Q13224+O15399+O60391+Q14957+Q8TCU5). The data set can be described thus: Inhibition of agonist site of NMDA receptor at 100 nM. The data set is classed as functional.
For data set [2], the target named is T1, Glutamate [NMDA] receptor (Homo sapiens). The data set can be described thus: Inhibition of agonist site of NMDA receptor at 10 uM. Format: functional.
The nature of data set [3]: Inhibition of alpha-bungarotoxin insensitive nicotinic receptor at 10 uM.
For data set [4], the target named is Sodium-dependent noradrenaline transporter (Homo sapiens, UniProt P23975). The data set can be described thus: Inhibition of NET at 100 nM.
Sequence of Sodium-dependent noradrenaline transporter (P23975 whole entry): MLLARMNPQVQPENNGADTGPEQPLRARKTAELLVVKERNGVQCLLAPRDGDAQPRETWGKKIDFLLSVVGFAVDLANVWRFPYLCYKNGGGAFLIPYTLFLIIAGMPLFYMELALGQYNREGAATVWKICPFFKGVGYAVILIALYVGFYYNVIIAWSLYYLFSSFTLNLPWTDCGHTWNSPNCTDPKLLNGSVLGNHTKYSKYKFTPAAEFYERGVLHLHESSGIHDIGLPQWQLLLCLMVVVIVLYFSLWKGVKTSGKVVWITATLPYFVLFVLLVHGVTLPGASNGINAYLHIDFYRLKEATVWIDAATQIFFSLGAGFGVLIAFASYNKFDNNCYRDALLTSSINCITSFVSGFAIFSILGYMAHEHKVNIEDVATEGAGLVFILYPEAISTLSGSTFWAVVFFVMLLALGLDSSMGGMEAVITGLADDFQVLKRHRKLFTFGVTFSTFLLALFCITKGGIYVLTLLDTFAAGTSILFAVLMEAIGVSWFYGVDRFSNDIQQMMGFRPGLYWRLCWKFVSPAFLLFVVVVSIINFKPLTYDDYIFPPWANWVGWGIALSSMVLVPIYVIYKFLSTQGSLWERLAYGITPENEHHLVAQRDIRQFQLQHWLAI
Data set [5] addresses T2, Androgen receptor (Homo sapiens) (UniProt P10275).
T2 sequence (whole entry): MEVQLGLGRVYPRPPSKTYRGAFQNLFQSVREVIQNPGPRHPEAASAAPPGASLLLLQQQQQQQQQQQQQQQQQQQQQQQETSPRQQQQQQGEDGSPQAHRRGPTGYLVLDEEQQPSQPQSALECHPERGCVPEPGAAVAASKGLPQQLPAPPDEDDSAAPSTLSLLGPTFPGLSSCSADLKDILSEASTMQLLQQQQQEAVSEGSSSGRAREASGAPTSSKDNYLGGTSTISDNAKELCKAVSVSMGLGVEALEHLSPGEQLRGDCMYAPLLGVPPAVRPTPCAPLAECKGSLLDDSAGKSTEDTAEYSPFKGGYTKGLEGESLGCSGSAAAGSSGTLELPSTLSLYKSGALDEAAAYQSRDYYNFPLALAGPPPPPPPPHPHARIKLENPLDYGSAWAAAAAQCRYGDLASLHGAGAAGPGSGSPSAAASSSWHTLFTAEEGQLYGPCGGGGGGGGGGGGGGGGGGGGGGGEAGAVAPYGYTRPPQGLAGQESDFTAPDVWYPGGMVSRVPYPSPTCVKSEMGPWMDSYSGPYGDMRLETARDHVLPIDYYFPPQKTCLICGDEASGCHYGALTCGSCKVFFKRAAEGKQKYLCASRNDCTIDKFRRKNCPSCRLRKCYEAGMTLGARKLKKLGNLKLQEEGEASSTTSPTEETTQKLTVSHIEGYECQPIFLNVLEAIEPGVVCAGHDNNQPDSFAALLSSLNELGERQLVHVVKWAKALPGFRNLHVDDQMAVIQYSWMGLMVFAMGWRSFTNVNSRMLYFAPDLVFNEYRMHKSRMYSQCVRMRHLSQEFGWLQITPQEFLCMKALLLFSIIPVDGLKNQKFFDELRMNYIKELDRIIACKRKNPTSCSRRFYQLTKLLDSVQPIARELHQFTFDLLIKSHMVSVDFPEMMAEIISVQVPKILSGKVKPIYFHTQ
The data set can be described thus: Inhibition of testosterone receptor at 1 nM.

Data set [6] addresses L-type calcium channel, dihydropyridine site (Homo sapiens, UniProt O60840+Q01668+Q13698+Q13936). The data set can be described thus: Inhibitory activity at dihydropyridine site of Calcium channel L type at 10 uM. Format: protein assay.
The target of data set [7] is T1, Glutamate [NMDA] receptor (Homo sapiens). The data set can be described thus: Inhibition of MK-801 site of glutamate receptor at 1 nM. The data set is classed as protein-complex assay.
Data set [8] is described as follows: Inhibitory activity at site 2 of sodium channel at 10 uM.
For data set [9], the target named is Leukotriene B4 receptor (Homo sapiens) (UniProt Q9NPC1+Q15722). The data set can be described thus: Inhibition of leukotriene B4 at 10 uM. Format: protein assay.
Sequence of Leukotriene B4 receptor (Homo sapiens) (Q15722 whole entry, looked up): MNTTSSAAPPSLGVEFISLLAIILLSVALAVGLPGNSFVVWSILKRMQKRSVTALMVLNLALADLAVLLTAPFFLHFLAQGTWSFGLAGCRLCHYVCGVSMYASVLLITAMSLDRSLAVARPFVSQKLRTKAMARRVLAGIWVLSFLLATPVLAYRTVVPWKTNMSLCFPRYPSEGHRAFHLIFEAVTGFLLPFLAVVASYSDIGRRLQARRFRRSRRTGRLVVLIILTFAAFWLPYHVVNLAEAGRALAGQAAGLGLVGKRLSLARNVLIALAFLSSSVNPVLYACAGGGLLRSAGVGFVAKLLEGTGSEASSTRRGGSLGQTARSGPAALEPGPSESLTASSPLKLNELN
Sequence of Leukotriene B4 receptor (Homo sapiens) (Q9NPC1 whole entry, looked up): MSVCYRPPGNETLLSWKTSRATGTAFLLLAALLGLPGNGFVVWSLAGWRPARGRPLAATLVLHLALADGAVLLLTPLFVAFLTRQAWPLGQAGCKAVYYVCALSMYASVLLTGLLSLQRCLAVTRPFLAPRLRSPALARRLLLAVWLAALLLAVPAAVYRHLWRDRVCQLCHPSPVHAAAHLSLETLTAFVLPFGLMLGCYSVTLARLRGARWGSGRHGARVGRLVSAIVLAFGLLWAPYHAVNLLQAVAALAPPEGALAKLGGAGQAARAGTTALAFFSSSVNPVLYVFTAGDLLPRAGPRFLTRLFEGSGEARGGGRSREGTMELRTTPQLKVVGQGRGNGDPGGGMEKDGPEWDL
Data set [10] addresses T3, Atrial natriuretic peptide receptor 1 (Homo sapiens) (UniProt P16066).
T3 sequence (whole entry): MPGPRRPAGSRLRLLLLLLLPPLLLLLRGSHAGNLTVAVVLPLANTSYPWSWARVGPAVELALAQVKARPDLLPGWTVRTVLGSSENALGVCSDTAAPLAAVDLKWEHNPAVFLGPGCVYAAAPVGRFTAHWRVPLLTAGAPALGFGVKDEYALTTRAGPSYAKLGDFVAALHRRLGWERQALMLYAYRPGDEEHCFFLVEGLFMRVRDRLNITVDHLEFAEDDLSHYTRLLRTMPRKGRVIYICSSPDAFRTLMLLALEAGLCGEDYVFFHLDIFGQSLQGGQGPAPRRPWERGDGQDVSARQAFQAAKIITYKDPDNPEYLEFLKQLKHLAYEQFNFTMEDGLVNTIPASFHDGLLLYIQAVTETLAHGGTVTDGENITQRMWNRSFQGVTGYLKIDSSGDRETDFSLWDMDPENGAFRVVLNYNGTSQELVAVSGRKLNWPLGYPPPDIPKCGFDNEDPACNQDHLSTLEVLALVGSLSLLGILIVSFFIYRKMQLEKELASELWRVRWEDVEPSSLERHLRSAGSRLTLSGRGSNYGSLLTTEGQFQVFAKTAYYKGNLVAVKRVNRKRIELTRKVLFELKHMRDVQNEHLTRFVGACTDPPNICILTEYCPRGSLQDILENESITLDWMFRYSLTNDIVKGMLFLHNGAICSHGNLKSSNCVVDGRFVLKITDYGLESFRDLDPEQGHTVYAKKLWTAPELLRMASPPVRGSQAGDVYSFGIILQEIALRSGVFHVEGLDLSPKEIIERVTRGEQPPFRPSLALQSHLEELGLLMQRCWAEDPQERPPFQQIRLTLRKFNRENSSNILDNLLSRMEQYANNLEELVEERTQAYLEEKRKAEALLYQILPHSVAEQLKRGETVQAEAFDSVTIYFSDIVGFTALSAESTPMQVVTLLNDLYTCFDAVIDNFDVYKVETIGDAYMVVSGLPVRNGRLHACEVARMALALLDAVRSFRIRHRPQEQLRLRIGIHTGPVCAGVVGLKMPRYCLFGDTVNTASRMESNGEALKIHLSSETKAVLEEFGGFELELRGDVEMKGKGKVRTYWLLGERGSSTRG
The data set can be described thus: Inhibition of ANP A at 100 nM.

Data set [11] addresses T4, Alpha-2A adrenergic receptor (Homo sapiens, UniProt P08913).
T4 sequence (P08913 whole entry): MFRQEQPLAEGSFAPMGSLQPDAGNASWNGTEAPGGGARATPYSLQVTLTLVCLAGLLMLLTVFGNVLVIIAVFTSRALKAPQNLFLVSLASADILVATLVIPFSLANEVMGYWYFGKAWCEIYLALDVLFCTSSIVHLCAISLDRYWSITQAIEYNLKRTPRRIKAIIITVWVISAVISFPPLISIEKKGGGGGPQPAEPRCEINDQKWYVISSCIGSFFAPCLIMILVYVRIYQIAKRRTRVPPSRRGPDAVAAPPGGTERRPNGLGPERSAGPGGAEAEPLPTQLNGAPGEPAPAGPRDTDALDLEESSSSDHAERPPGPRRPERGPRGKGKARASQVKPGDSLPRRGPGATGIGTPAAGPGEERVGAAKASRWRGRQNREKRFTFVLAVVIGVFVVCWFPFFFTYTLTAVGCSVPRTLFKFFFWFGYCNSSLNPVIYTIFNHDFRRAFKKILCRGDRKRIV
The data set can be described thus: Activity at adrenergic alpha-2A receptor expressed in human clonic adenocarcinoma HT29 cell by adenylyl cyclase assay. The data set is classed as functional, cell-based, HT-29.

One may read the inhibition as the relative decrease from the control value, in per cent. By EC50 is commonly meant the concentration at which the effect is half-maximal.

On to `C[C@H](N)Cn1ncc2ccc(O)cc21`, for which the inhibition in [1] was 15.7%; in data set [2], 9.07%; in data set [3], 7.7%; in [4], 3.93%; in data set [5], 0.47%; in [7] it was -7.45%. For the same compound, the inhibition is -0.61% in data set [8], 13% in data set [9] and 3.01% in [10]. Moreover, the inhibition at 10 µM in data set [6] stood at 15.2%. For the same compound, the EC50 in data set [11] is above 10 µM.
